Test results taken from patent US10538487B2, “Sulfonylureas and related compounds and use of same” (priority 2015, dated 2020).

Each molecule was assayed against NLRP3 inflammasome (Homo sapiens, UniProt Q96P20) (assay: Inhibition of IL-1β release, NLRP3 inflammasome activation assay in HMDM). Details: commercial compounds (Table 9), read-out: HMDM IC50 vs NLRP3.
Assay type: cell-based
Description: The following assays can be used to determine inhibitory activity of test compounds on the NLRP3 inflammasome using common stimuli such as adenosine triphosphate, nigericin, LeuLeu-OMe or monosodium urate crystals (MSU).
To generate HMDM, human monocytes are isolated from buffy coat blood using Ficoll-Plaque Plus (GE Healthcare) and density centrifugation. CD14^+ cell selection is performed using MACS magnetic beads (Miltenyl Biotec).
HMDM are seeded at 1×10^5/ml. […] Medium is removed and replaced with serum free medium (SFM) containing test compound 30 min prior to NLRP3 stimulation. […] ATP can be sourced from Sigma Aldrich, nigericin and MSU from Invivogen and LeuLeu-Ome from Chem-Impex International.
For ELISA and cell death assays cells are seeded in 96 well plates. Supernatants are removed and analysed using ELISA kits according to the manufacturer's instructions (DuoSet® R&D Systems, ReadySetGo!® eBioscience, BD OptEIA™, or Perkin Elmer AlphaLISA®). Cell death is assessed by measurement of LDH release relative to a 100% cell lysis control using the CytoTox96® non-radioactive cytotoxicity assay (Promega).

Sequence of NLRP3 inflammasome (Q96P20 whole entry): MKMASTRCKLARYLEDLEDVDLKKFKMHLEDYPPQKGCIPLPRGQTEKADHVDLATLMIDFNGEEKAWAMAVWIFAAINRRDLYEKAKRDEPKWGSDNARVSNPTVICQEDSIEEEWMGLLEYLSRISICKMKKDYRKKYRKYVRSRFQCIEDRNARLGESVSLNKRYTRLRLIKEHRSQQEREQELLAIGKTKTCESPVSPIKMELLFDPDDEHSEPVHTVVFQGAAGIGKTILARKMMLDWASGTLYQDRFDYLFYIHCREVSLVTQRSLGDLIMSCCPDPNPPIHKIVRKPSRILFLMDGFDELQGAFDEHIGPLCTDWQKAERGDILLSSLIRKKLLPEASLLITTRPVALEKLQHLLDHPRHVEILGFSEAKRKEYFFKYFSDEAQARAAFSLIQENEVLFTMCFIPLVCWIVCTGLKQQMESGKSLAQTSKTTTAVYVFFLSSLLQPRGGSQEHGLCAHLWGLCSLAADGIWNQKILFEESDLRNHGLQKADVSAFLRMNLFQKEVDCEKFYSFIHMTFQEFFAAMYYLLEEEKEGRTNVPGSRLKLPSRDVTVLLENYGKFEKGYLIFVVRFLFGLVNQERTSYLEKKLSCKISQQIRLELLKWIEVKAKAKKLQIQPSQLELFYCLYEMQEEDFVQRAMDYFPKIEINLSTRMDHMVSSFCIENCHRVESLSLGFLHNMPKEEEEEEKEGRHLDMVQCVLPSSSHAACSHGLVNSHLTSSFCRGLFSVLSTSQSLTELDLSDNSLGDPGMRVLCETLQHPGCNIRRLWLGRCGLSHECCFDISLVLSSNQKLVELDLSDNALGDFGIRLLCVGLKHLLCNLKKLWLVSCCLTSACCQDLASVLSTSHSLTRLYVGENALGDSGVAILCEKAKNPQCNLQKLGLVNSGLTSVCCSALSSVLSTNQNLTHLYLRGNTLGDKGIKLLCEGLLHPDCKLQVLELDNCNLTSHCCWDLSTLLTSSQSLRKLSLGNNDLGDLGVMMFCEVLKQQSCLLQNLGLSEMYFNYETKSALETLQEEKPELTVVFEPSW

Row | Structure (SMILES) | IC50 [nM]
1 | CCC1=C(C)CN(C(=O)NCCc2ccc(S(N)(=O)=O)cc2)C1=O [Glimespiride precursor, reference compound] | > 200000

Same assay, conditions: inhibition of IL-1β release, class symbols, read-out: Avg. IL-1β IC50 HMDM

Row | Structure (SMILES) | IC50 [nM]
2 | CN(CC(=O)NCCc1ccc(S(=O)(=O)NC(=O)Nc2c3c(cc4c2CCC4)CCC3)cc1)c1ccc([N+](=O)[O-])c2nonc12 [N-(4-(N-(1,2,3,5,6,7-Hexahydros-indacen-4-ylcarbamoyl)sulfamoyl)phenethyl)-2-(methyl(7-nitrobenzo[c][1,2,5]oxadiazol-4-yl)amino)acetamide] | < 10000
3 | O=C(Nc1c2c(cc3c1CCC3)CCC2)NS(=O)(=O)c1ccn(-c2ccccc2)n1 [N-((1,2,3,5,6,7-hexahydro-s-indacen-4-yl)carbamoyl)-1-phenyl-1H-pyrazole-3-sulfonamide] | < 1000
4 | O=C(Nc1c2c(cc3c1CCC3)CCC2)NS(=O)(=O)c1ccc2c(c1)OCO2 [N-((1,2,3,5,6,7-hexahydro-s-indacen-4-yl)carbamoyl)benzo[d][1,3]dioxole-5-sulfonamide] | < 1000
5 | O=C(Nc1c2c(cc3c1CCC3)CCC2)NS(=O)(=O)c1ccn(C2CC2)n1 [1-cyclopropyl-N-((1,2,3,5,6,7-hexahydro-s-indacen-4-yl)carbamoyl)-1H-pyrazole-3-sulfonamide] | < 100
6 | COc1cc(NC(=O)NS(=O)(=O)c2cc(C(C)(C)O)co2)c2ncccc2c1 [4-(2-hydroxypropan-2-yl)-N-((6-methoxyquinolin-8-yl)carbamoyl)furan-2-sulfonamide] | < 10000
7 | CC(C)(O)c1ccnc(S(=O)(=O)NC(=O)Nc2c3c(cc4c2CCC4)CCC3)c1 [N-(1,2,3,5,6,7-hexahydro-s-indacen-4-ylcarbamoyl)-4-(2-hydroxypropan-2-yl)pyridine-2-sulfonamide] | < 100
8 | [2H]C([2H])([2H])C(O)(c1cc(S(=O)(=O)NC(=O)Nc2c3c(cc4c2CCC4)CCC3)oc1C)C([2H])([2H])[2H] [N-((1,2,3,5,6,7-hexahydro-s-indacen-4-yl)carbamoyl)-4-(2-hydroxypropan-2-yl-1,1,1,3,3,3-d6)-5-methylfuran-2-sulfonamide] | < 100
9 | CCc1ccc(S(=O)(=O)NC(=O)Nc2c3c(cc4c2CCC4)CCC3)o1 [5-ethyl-N-((1,2,3,5,6,7-hexahydro-s-indacen-4-yl)carbamoyl)furan-2-sulfonamide] | < 1000
10 | NCCCn1cc(CCC(=O)Nc2cccc(S(=O)(=O)NC(=O)Nc3c4c(cc5c3CCC5)CCC4)c2)nn1 [3-(1-(3-aminopropyl)-1H-1,2,3-triazol-4-yl)-N-(3-(N-((1,2,3,5,6,7-hexahydro-s-indacen-4-yl)carbamoyl)sulfamoyl)phenyl)propanamide] | < 1000
11 | O=C(Nc1c2c(cc3c1CCC3)CCC2)NS(=O)(=O)c1cccc(-n2cc(-c3ccccc3)nn2)c1 [N-((1,2,3,5,6,7-hexahydro-s-indacen-4-yl)carbamoyl)-3-(4-phenyl-1H-1,2,3-triazol-1-yl)benzenesulfonamide] | < 10000
12 | O=C(Nc1c2c(cc3c1CCC3)CCC2)NS(=O)(=O)c1ccn(Cc2ccccc2)n1 [1-benzyl-N-((1,2,3,5,6,7-hexahydro-s-indacen-4-yl)carbamoyl)-1H-pyrazole-3-sulfonamide] | < 10000
13 | CC(C)(C)c1cc(C(C)(C)C)nc(NC(=O)NS(=O)(=O)c2cc(C(C)(C)O)co2)n1 [N-((4,6-di-tert-butylpyrimidin-2-yl)carbamoyl)-4-(2-hydroxypropan-2-yl)furan-2-sulfonamide] | < 50000
14 | O=C(Nc1c2c(cc3c1CCC3)CCC2)NS(=O)(=O)c1ccn(C2CCCCC2)n1 [1-cyclohexyl-N-((1,2,3,5,6,7-hexahydro-s-indacen-4-yl)carbamoyl)-1H-pyrazole-3-sulfonamide] | < 1000
15 | O=C(Nc1c2c(cc3c1CCC3)CCC2)NS(=O)(=O)c1cccc2cccnc12 [N-((1,2,3,5,6,7-hexahydro-s-indacen-4-yl)carbamoyl)quinoline-8-sulfonamide] | < 1000
16 | CC(C)c1cc(Cl)cc(C(C)C)c1NC(=O)NS(=O)(=O)c1cccc2cnccc12 [N-((4-chloro-2,6-diisopropylphenyl)carbamoyl)isoquinoline-5-sulfonamide] | < 1000
17 | O=C(Nc1c2c(cc3c1CCC3)CCC2)NS(=O)(=O)C1CCOC1 (stereo not shown) [N-((1,2,3,5,6,7-hexahydro-s-indacen-4-yl)carbamoyl)tetrahydrofuran-3-sulfonamide] | < 10000
18 | O=C(Nc1c2c(cc3c1CCC3)CCC2)NS(=O)(=O)c1cccc(OC(F)F)c1 [3-(difluoromethoxy)-N-((1,2,3,5,6,7-hexahydro-s-indacen-4-yl)carbamoyl)benzenesulfonamide] | < 1000
19 | CC(C)c1cc(Cl)cc(C(C)C)c1NC(=O)NS(=O)(=O)c1cccc2cccnc12 [N-((4-chloro-2,6-diisopropylphenyl)carbamoyl)quinoline-8-sulfonamide] | < 10000

Row | Structure (SMILES) | IC50 [nM]
20 | CC(C)c1cccc(C(C)C)c1NC(=O)NS(=O)(=O)c1cc(C(F)(F)F)n(C)n1 [N-((2,6-diisopropylphenyl)carbamoyl)-1-methyl-5-(trifluoromethyl)-1H-pyrazole-3-sulfonamide] | < 10000
21 | C#CCCC(=O)Nc1cccc(S(=O)(=O)NC(=O)Nc2c3c(cc4c2CCC4)CCC3)c1 [N-(3-(N-((1,2,3,5,6,7-hexahydro-s-indacen-4-yl)carbamoyl)sulfamoyl)phenyl)pent-4-ynamide] | < 1000
22 | CN(C)S(=O)(=O)c1cccc(S(=O)(=O)NC(=O)Nc2c3c(cc4c2CCC4)CCC3)c1 [N1-((1,2,3,5,6,7-hexahydro-s-indacen-4-yl)carbamoyl)-N3,N3-dimethylbenzene-1,3-disulfonamide] | < 100
23 | COc1cc(NC(=O)NS(=O)(=O)c2cccc(C3(C(F)(F)F)N=N3)c2)c2ncccc2c1 [N-((6-methoxyquinolin-8-yl)carbamoyl)-3-(3-(trifluoromethyl)-3H-diazirin-3-yl)benzenesulfonamide] | < 50000
24 | NC(=O)c1cccc(S(=O)(=O)NC(=O)Nc2c3c(cc4c2CCC4)CCC3)c1 [3-(N-(1,2,3,5,6,7-Hexahydro-s-indacen-4-ylcarbamoyl)sulfamoyl)benzamide] | < 1000
25 | Cc1cnc(C(=O)NCCc2ccc(S(=O)(=O)NC(=O)Nc3c4c(cc5c3CCC5)CCC4)cc2)cn1 [N-(4-(N-((1,2,3,5,6,7-hexahydro-s-indacen-4-yl)carbamoyl)sulfamoyl)phenethyl)-5-methylpyrazine-2-carboxamide] | < 1000
26 | CC(C)c1cc(Cl)cc(C(C)C)c1NC(=O)NS(=O)(=O)c1ccc2ccccc2c1 [N-((4-chloro-2,6-diisopropylphenyl)carbamoyl)naphthalene-2-sulfonamide] | < 10000
27 | CC(C)(O)c1coc(S(=O)(=O)NC(=S)Nc2c3c(cc4c2CCC4)CCC3)c1 [N-((1,2,3,5,6,7-hexahydro-s-indacen-4-yl)carbamothioyl)-4-(2-hydroxypropan-2-yl)furan-2-sulfonamide] | < 1000
28 | O=C(Nc1c2c(cc3c1CCC3)CCC2)NS(=O)(=O)c1ccn(CCN2CCCCC2)n1 [N-((1,2,3,5,6,7-hexahydro-s-indacen-4-yl)carbamoyl)-1-(2-(piperidin-1-yl)ethyl)-1H-pyrazole-3-sulfonamide] | < 10000
29 | CC(C)c1cc(Cl)cc(C(C)C)c1NC(=O)NS(=O)(=O)c1cc(C(C)(C)O)n(-c2ccccc2)n1 [sodium ((4-chloro-2,6-diisopropylphenyl)carbamoyl)((5-(2-hydroxypropan-2-yl)-1-phenyl-1H-pyrazol-3-yl)sulfonyl)amide] | < 100
30 | O=C(Nc1cccc2ncccc12)NS(=O)(=O)c1cccc(C2(C(F)(F)F)N=N2)c1 [N-(quinolin-5-ylcarbamoyl)-3-(3-(trifluoromethyl)-3H-diazirin-3-yl)benzenesulfonamide] | < 50000
31 | O=C(Nc1c2c(cc3c1CCC3)CCC2)NS(=O)(=O)C1CCOCC1 [N-((1,2,3,5,6,7-hexahydro-s-indacen-4-yl)carbamoyl)tetrahydro-2H-pyran-4-sulfonamide] | < 1000
32 | COc1ccccc1S(=O)(=O)NC(=O)Nc1c2c(cc3c1CCC3)CCC2 [N-((1,2,3,5,6,7-hexahydro-s-indacen-4-yl)carbamoyl)-2-methoxybenzenesulfonamide] | < 1000
33 | C#CCNC(=O)CCc1ccc(S(=O)(=O)NC(=O)Nc2c3c(cc4c2CCC4)CCC3)cc1 [3-(4-(N-((1,2,3,5,6,7-hexahydro-s-indacen-4-yl)carbamoyl)sulfamoyl)phenyl)-N-(prop-2-yn-1-yl)propanamide] | < 100
34 | O=C(Nc1c2c(cc3c1CCC3)CCC2)NS(=O)(=O)c1ccn(C(F)(F)F)n1 [N-((1,2,3,5,6,7-hexahydro-s-indacen-4-yl)carbamoyl)-1-(trifluoromethyl)-1H-pyrazole-3-sulfonamide] | < 100
35 | CC(C)(O)c1cccc(S(=O)(=O)NC(=O)Nc2c3c(cc4c2CCC4)CCC3)c1 [N-((1,2,3,5,6,7-hexahydro-s-indacen-4-yl)carbamoyl)-3-(2-hydroxypropan-2-yl)benzenesulfonamide] | < 100
36 | CC(C)n1nc(S(=O)(=O)NC(=O)Nc2c3c(cc4c2CCC4)CCC3)cc1C(F)(F)F [N-((1,2,3,5,6,7-hexahydro-s-indacen-4-yl)carbamoyl)-1-isopropyl-5-(trifluoromethyl)-1H-pyrazole-3-sulfonamide] | < 1000
37 | Cc1oc(S(=O)(=O)NC(=O)Nc2c(C(C)C)cccc2C(C)C)cc1C(C)(C)O [N-((2,6-diisopropylphenyl)carbamoyl)-4-(2-hydroxypropan-2-yl)-5-methylfuran-2-sulfonamide] | < 100
